According to paper PMC5363247 (Angewandte Chemie (International Ed. in English), 2017):

Assays:
factor Xa [1] = target: T1, factor Xa (Homo sapiens, UniProt P00742); assay: factor Xa enzyme activity; assay type: biochemical; settings: initial rates, Michaelis-Menten fit
factor Xa [2] = target: T1, factor Xa; assay: fragment ligation assay, detection via biochemical assay; settings: read-out: inhibition of factor Xa

T1 sequence (P00742 235-488 limits assumed): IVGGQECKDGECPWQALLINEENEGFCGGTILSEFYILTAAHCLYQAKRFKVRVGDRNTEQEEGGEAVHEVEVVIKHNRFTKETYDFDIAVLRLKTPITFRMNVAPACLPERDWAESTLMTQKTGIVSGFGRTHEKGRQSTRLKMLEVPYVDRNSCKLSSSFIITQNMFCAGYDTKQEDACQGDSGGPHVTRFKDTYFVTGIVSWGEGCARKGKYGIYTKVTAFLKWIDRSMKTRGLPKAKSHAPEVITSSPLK
T1 sequence (P00742 41-179 partner limits assumed): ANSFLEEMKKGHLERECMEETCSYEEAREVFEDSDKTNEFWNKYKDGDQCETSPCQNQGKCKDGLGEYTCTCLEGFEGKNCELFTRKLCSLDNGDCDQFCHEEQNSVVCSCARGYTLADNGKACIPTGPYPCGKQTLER

Compound	K M of fluorogenic substrate (factor Xa [1]) [µM]	inhibition at 285 µM (factor Xa [2]) [%]
7‐(N‐Boc‐leucinyl‐glycinyl‐arginyl)‐7‐amino‐4‐methylcoumarin	76	
N=C(N)c1ccc(CN)cc1 [compound 14, 4‐Aminomethylbenzamidine]		20
